# Test results from patent publication US8524906B2, “Tetrahydrothiazolopyridine inhibitors of phosphatidylinositol 3-kinase” (Vertex Pharmaceuticals Incorporated, priority 2009, dated 2013).
# pKi: −log10 of the molar value. “And” between values parts separate entries of the source, which are not always exact repeats. Equal values may be shown once.
# Molecular target: PI3Kγ (Homo sapiens, UniProt P48736)
# Assay: PI3K Inhibition Assay (33P-ATP, PI(4,5)P2 substrate, filter plate scintillation counting)
# Format: biochemical
# Details: 3 μM ATP, 30 μM PI(4,5)P2, 2 nM final enzyme, 30 min at 25° C.; competitive tight binding Ki fit; read-out: Ki for PI3Kγ
# Description: One test well also contained 1.5 μL of DMSO with no compound. […] Using a Titertek Multidrop, 50 μL of Reaction Mix [100 mM HEPES pH 7.5, 50 mM NaCl, 10 mM DTT, 0.2 mg/mL BSA, 60 μM phosphatidylinositol(4,5)-bisphosphate diC16 (PI(4,5)P2; Avanti Polar Lipids, Cat. No. 840046P) and PI3K isoform of interest (see Table 3 for isoform concentrations)] was added to each well. To initiate the reaction, 50 μL of ATP Mix [20 mM MgCl2, 6 μM ATP (100 μCi/μmole ^33P-ATP)] was added each well, followed by incubating the wells for 30 min. at 25° C. Final concentrations in each well were 50 mM HEPES 7.5, 10 mM MgCl2, 25 mM NaCl, 5 mM DTT, 0.1 mg/mL BSA, 30 μM PI(4,5)P2, 3 μM ATP, and the PI3K isoform of interest (see Table 3). Final compound concentrations in each well ranged from 10 μM to 1 nM.
# After incubation, the reactions in each well were quenched by addition of 50 μL of stop solution [30% TCA/Water, 10 mM ATP]. […] 50 μL of scintillation fluid was added to each well and the plate read on a Perkin-Elmer TopCount™ NXT liquid scintillation counter to obtain ^33P-counts representing inhibition values.
# The value for the background well was subtracted from the value obtained for each test well and the data were fit to the competitive tight binding Ki equation described by Morrison and Stone, Comments Mol. Cell Biophys.
# Chain of PI3Kγ (P48736 whole entry, species assumed): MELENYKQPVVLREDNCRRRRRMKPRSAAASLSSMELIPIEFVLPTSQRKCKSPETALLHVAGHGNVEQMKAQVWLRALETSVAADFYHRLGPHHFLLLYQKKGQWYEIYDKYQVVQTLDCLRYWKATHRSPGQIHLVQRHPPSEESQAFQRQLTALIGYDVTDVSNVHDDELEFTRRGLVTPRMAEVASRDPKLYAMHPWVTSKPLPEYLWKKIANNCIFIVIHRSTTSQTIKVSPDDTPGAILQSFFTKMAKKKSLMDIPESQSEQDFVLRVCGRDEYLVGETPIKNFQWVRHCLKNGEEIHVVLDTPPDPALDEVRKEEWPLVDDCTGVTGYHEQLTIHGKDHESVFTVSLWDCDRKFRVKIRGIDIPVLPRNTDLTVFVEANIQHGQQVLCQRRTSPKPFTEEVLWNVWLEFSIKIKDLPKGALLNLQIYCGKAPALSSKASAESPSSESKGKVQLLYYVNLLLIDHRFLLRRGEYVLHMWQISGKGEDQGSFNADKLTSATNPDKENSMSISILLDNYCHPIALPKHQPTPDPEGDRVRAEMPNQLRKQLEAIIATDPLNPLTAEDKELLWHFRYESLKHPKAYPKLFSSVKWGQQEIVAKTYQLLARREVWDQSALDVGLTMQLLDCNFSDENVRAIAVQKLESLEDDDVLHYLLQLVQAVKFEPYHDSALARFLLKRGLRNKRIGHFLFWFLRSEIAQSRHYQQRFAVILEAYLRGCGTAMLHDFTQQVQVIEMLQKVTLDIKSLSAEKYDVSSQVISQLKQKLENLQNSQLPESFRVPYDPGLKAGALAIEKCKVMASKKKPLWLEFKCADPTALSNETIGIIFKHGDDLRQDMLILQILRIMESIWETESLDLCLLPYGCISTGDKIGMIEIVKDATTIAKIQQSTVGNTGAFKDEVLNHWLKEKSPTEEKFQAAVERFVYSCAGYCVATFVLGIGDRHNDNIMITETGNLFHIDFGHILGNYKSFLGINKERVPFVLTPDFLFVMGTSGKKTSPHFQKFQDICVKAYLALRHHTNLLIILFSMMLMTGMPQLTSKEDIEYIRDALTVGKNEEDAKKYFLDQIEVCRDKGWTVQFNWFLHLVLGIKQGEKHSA
row,SMILES,pKi
1,COc1cc(N2CCc3nc(NC(=O)N4CCCC4)sc3C2)cnc1Cl [Compound 57],> 7.00
2,COCC(=O)Nc1nc2c(s1)CN(c1cncc(OC)c1)CC2 [Compound 4],> 7.00
3,COc1cc(N2CCc3nc(NC(=O)N4CC(OC)C4)sc3C2)cnc1Cl [Compound 51],> 7.00
4,CCNC(=O)Nc1nc2c(s1)CN(c1cncc(C(F)(F)F)c1)CC2 [Compound 6],> 7.00
5,CC(=O)Nc1nc2c(s1)CN(c1cncc(C(F)(F)F)n1)CC2 [Compound 17],> 7.00
6,CCCOCCNC(=O)Nc1nc2c(s1)CN(c1cncc(C(F)(F)F)c1)CC2 [Compound 12],> 7.70
7,CCOCCCNC(=O)Nc1nc2c(s1)CN(c1cnc(Cl)c(OC)c1)CC2 [Compound 39],> 7.00
8,"COc1cncc(N2CCc3nc(Nc4cnccn4)sc3C2)c1 [Compound 18, 4,5,6,7-tetrahydro-5-(5-methoxypyridin-3-yl)-N-(pyrazin-2-yl)thiazolo[5,4-c]pyridin-2-amine]",> 7.00
9,"COc1ncc(N2CCc3nc(NC(C)=O)sc3C2)nc1OC [Compound 14, N-(4,5,6,7-tetrahydro-5-(5,6-dimethoxypyrazin-2-yl)thiazolo[5,4-c]pyridin-2-yl)acetamide]",> 7.70
10,CC(=O)Nc1nc2c(s1)CN(c1cncc(C(F)(F)F)c1)CC2 [Compound 7],> 7.00
11,COCC(=O)Nc1nc2c(s1)CN(c1cncc(C(F)(F)F)c1)CC2 [Compound 8],> 7.00
12,COc1cc(N2CCc3nc(NC(=O)NCCc4cn(CCF)cn4)sc3C2)cnc1Cl [Compound 38],> 7.00

# The remaining lines, values ahead:
row,pKi,SMILES
1,> 7.70 and 8.52 and > 7.00,CCOC(=O)CCNC(=O)Nc1nc2c(s1)CN(c1cnc(Cl)c(OC)c1)CC2 [Compound 52]
2,> 7.00,CCCOCCNC(=O)Nc1nc2c(s1)CN(c1cnc(OC)c(OC)c1)CC2 [Compound 16]
3,> 7.00,COc1cc(N2CCc3nc(NC(=O)CCNC(C)=O)sc3C2)cnc1Cl [Compound 44]
4,> 7.00,COc1cc(N2CCc3nc(NC=O)sc3C2)cnc1OC [Compound 15]
5,> 7.00,CCOC(=O)CCCNC(=O)Nc1nc2c(s1)CN(c1cnc(Cl)c(OC)c1)CC2 [Compound 34]
6,> 7.00,COc1cc(N2CCc3nc(NC(=O)NCCCO)sc3C2)cnc1Cl [Compound 50]
7,> 7.00,COc1cc(N2CCc3nc(NC(=O)CNC(=O)c4ccccn4)sc3C2)cnc1OC [Compound 33]
8,> 7.00,CCNC(=O)Nc1nc2c(s1)CN(c1cnc(OC)c(OC)c1)CC2 [Compound 10]
9,> 7.00,COc1cc(N2CCc3nc(NC(=O)CCNC(=O)c4ccccn4)sc3C2)cnc1OC [Compound 32]
10,> 7.00,COCCNC(=O)Nc1nc2c(s1)CN(c1cnc(Cl)c(OC)c1)CC2 [Compound 35]
11,> 7.00,COc1cc(N2CCc3nc(NC(=O)NCCCN(C)C)sc3C2)cnc1Cl [Compound 37]

# Same assay, conditions: Ki for PI3Kγ, 3 μM ATP, 30 μM PI(4,5)P2, 2 nM final enzyme, 30 min at 25° C.; competitive tight binding Ki fit
row,SMILES,pKi
1,COc1cc(N2CCc3nc(NC(=O)NCCCl)sc3C2)cnc1OC [Compound 11],> 7.00
2,COc1cncc(N2CCc3nc(NC(=O)CF)sc3C2)c1 [Compound 19],> 7.00
